ChEMBL document CHEMBL1201862, “PubChem BioAssay data set” (2004)
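Values below derive from 48-hour exposures of cells grown in 96-well plates, with endpoints linearly interpolated between the two concentrations bracketing the appropriate inhibition level. Here, GI50 denotes the concentration required for 50% inhibition of growth.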 Calls of active or inactive are those of the source. Rule as the data show it: active = GI50 up to about 1.1 µM and inactive = higher.

Key:
Experiment in all cases: NCI tumour cell line growth inhibition, 48 h
OVCAR-8 = test system: OVCAR-8
UO-31 = test system: UO-31
SR = test system: SR
SW-620 = test system: SW-620
SNB-19 = test system: SNB-19
HCC 2998 = test system: HCC 2998
SF-539 = test system: SF-539
HCT-116 = test system: HCT-116
SN12C = test system: SN12C
Hs-578T = test system: Hs-578T
NCI-H226 = test system: NCI-H226
DU-145 = test system: DU-145
OVCAR-3 = test system: OVCAR-3
MDA-MB-435 = test system: MDA-MB-435
NCI/ADR-RES = test system: NCI/ADR-RES
NCI-H522 = test system: NCI-H522
TK-10 = test system: TK-10
SK-MEL-5 = test system: SK-MEL-5
NCI-H460 = test system: NCI-H460
UACC-62 = test system: UACC-62
RPMI-8226 = test system: RPMI-8226
A498 = test system: A498
UACC-257 = test system: UACC-257
SF-268 = test system: SF-268
MDA-MB-231 = test system: MDA-MB-231
SF-295 = test system: SF-295
MOLT-4 = test system: MOLT-4
SK-MEL-2 = test system: SK-MEL-2
OVCAR-5 = test system: OVCAR-5
BT-549 = test system: BT-549
HOP-92 = test system: HOP-92
HCT-15 = test system: HCT-15
KM12 = test system: KM12
Malme-3M = test system: Malme-3M
CAKI-1 = test system: CAKI-1
A549 = test system: A549
SK-MEL-28 = test system: SK-MEL-28
LOX IMVI = test system: LOX IMVI
OVCAR-4 = test system: OVCAR-4
NCI-H23 = test system: NCI-H23
MDA-N = test system: MDA-N
PC-3 = test system: PC-3
T47D = test system: T47D
MCF7 = test system: MCF7
EKVX = test system: EKVX
IGROV-1 = test system: IGROV-1
U-251 = test system: U-251
786-0 = test system: 786-0
HT-29 = test system: HT-29
HOP-62 = test system: HOP-62
M14 = test system: M14
ACHN = test system: ACHN
SK-OV-3 = test system: SK-OV-3
SNB-75 = test system: SNB-75

SMILES: Cc1cc2c(cc1N)C(C)C1(CCC(=O)N2Cc2ccccc2)OCCO1 (centres undefined)
- GI50 (OVCAR-8): > 100 µM (inactive)
- GI50 (UO-31): > 100 µM (inactive)
- GI50 (SR): 39.2 µM (inactive)
- GI50 (SW-620): > 100 µM (inactive)
- GI50 (SNB-19): > 100 µM (inactive)
- GI50 (HCC 2998): > 100 µM (inactive)
- GI50 (SF-539): > 100 µM (inactive)
- GI50 (HCT-116): > 100 µM (inactive)
- GI50 (SN12C): > 100 µM (inactive)
- GI50 (Hs-578T): > 100 µM (inactive)
- GI50 (NCI-H226): > 100 µM (inactive)
- GI50 (DU-145): > 100 µM (inactive)
- GI50 (OVCAR-3): > 100 µM (inactive)
- GI50 (MDA-MB-435): > 100 µM (inactive)
- GI50 (NCI/ADR-RES): > 100 µM (inactive)
- GI50 (NCI-H522): > 100 µM (inactive)
- GI50 (TK-10): > 100 µM (inactive)
- GI50 (SK-MEL-5): > 100 µM (inactive)
- GI50 (NCI-H460): > 100 µM (inactive)
- GI50 (UACC-62): > 100 µM (inactive)
- GI50 (RPMI-8226): 57.4 µM (inactive)
- GI50 (A498): > 100 µM (inactive)
- GI50 (UACC-257): > 100 µM (inactive)
- GI50 (SF-268): 83.4 µM (inactive)
- GI50 (MDA-MB-231): > 100 µM (inactive)
- GI50 (SF-295): > 100 µM (inactive)
- GI50 (MOLT-4): > 100 µM (inactive)
- GI50 (SK-MEL-2): > 100 µM (inactive)
- GI50 (OVCAR-5): > 100 µM (inactive)
- GI50 (BT-549): > 100 µM (inactive)
- GI50 (HOP-92): > 100 µM (inactive)
- GI50 (HCT-15): > 100 µM
- GI50 (KM12): > 100 µM (inactive)
- GI50 (Malme-3M): 89.7 µM (inactive)
- GI50 (CAKI-1): > 100 µM (inactive)
- GI50 (A549): > 100 µM (inactive)
- GI50 (SK-MEL-28): > 100 µM (inactive)
- GI50 (LOX IMVI): > 100 µM (inactive)
- GI50 (OVCAR-4): > 100 µM (inactive)
- GI50 (NCI-H23): > 100 µM (inactive)
- GI50 (MDA-N): > 100 µM (inactive)
- GI50 (PC-3): > 100 µM (inactive)
- GI50 (T47D): > 100 µM (inactive)
- GI50 (MCF7): > 100 µM (inactive)
- GI50 (EKVX): > 100 µM (inactive)
- GI50 (IGROV-1): > 100 µM (inactive)
- GI50 (U-251): > 100 µM (inactive)
- GI50 (786-0): > 100 µM (inactive)
- GI50 (HT-29): > 100 µM (inactive)
- GI50 (HOP-62): > 100 µM (inactive)
- GI50 (M14): > 100 µM (inactive)
- GI50 (ACHN): > 100 µM (inactive)
- GI50 (SK-OV-3): > 100 µM (inactive)
- GI50 (SNB-75): 32.3 µM (inactive)
